The NIST ThermoML archive (doi:10.1021/acs.jced.6b00542)

Assay: xn = mol fraction of the nth substance listed
Settings: 102 kPa, Liquid; for viscosity: Concentric cylinders viscometry; for mass density: Vibrating tube method

CCCCc1ccccc1 [butylbenzene] + CCCCCCCCCC
Settings	mass density, 353.15 K [kg/m3]	mass density, 363.15 K [kg/m3]	mass density, 373.15 K [kg/m3]	viscosity, 353.15 K [mPa·s]	viscosity, 363.15 K [mPa·s]	viscosity, 373.15 K [mPa·s]
x1 = 0.1055	694.4	686.4	678.2	0.439	0.399	0.365
x1 = 0.2096	705.6	697.5	689.3	0.443	0.402	0.369
x1 = 0.3124	717.1	709.1	700.9	0.447	0.407	0.373
x1 = 0.4141	729.2	721.1	712.8	0.453	0.412	0.378
x1 = 0.5145	741.7	733.5	725.3	0.46	0.419	0.384
x1 = 0.614	754.6	746.4	738.2	0.467	0.426	0.391
x1 = 0.712	768	759.9	751.6	0.477	0.434	0.399
x1 = 0.8094	782.1	773.9	765.6	0.488	0.444	0.408
x1 = 0.9051	796.5	788.3	779.9	0.5	0.456	0.419
x1 = 1	811.7	803.4	795	0.516	0.469	0.43
